Reference: PMC6696315, “Inhibiting Acetylcholinesterase to Activate Pleiotropic Prodrugs with Therapeutic Interest in Alzheimer’s Disease” (Molecules, 2019)
“Also recorded” adds a separate entry of the source.

Tests used:
[1] = tested on: mice; experiment: Spontaneous alternation (Y maze), MK801-induced deficit; assay type: in vivo, NMRI mice; conditions: 1 mg/kg IP 30 min before test, MK801 0.1 mg/kg SC
Protocol: (§1) Animals. Adult male NMRI mice (3 months old, weighing 35–40 g) from Janvier labs (Le Genest-Saint-Isle, France) were used to perform experiments. Mice were housed by ten in standard polycarbonate cages in standard controlled conditions (22 ± 2 °C, 55 ± 10% humidity) with a reversed 12 h light/dark cycle (light on at 7 pm). Food and water were available ad libitum in the home cage. All experiments were conducted (between 9 am and 3 pm) during the active–dark phase of the cycle and were in agreement with the European Directives and French law on animal experimentation (personal authorization n° 14–17 for MB and 14–60 for TF).
(§2) Spatial working memory. The antiamnesic activity of the tested compounds was evaluated by a reversal of deficit on spontaneous alternation behavior in the Y maze test. […] The Y maze made of grey plastic consisted of three equally-spaced arms (21-cm long, 7-cm wide with walls 15-cm high). The mouse was placed at the end of one of the arms and allowed to move freely through the maze during a 5 min session, while the sequence of arm entries was recorded by an observer. An arm entry was scored when all four feet crossed into the arm. An alternation was defined as entries into all three arms on a consecutive occasion.
(§3) Pharmacological treatments.

[2] = Parallel artificial membrane permeability assay (PAMPA-BBB)
Protocol: The ability of carbamate 20 to cross the BBB was assessed using a parallel artificial membrane permeability assay experiment. […] The parallel artificial membrane permeability assay (PAMPA) blood–brain barrier (BBB) experiments were conducted using the Pampa Explorer Kit (Pion Inc., Billerica, MA, USA) according to the protocol provided by the manufacturer. […] The PAMPA sandwich was assembled and allowed to incubate at room temperature for 4 h without stirring. The sandwich was then separated, and the UV-visible spectra were measured for both the donor and receiver wells with the microplate reader (Tecan Infinit M200).

[3] = target: AChE (Homo sapiens, UniProt P22303); experiment: Kinetic study for AChE inhibition (Lineweaver-Burk plots); assay type: biochemical
Protocol: To try to clarify the mechanism of action of 19 and 20, reciprocal plots of 1/velocity vs. 1/[substrate] were constructed at different concentrations of the substrate acetylthiocholine iodide (0.01–1 mM) by using the spectrometric method by Ellman et al.. Four concentrations of 19 were selected for the studies: 10^−6, 10^−7, 10^−8 and 10^−9 M for the kinetic analysis of AChE inhibition. Four concentrations of 20 were selected for the studies: 10^−5, 10^−6, 10^−7 and 10^−8 M for the kinetic analysis of AChE inhibition. The plots were assessed by a weighted least squares analysis that assumed the variance of velocity (ν) to be a constant percentage of ν for the entire dataset. Slopes of these reciprocal plots were then plotted against the concentration of 19 and 20 in a weighted analysis.

[4] = tested on: mice; experiment: Spontaneous locomotor activity (actimeter); assay type: in vivo, NMRI mice; conditions: IP 30 min before test, 1, 3 and 10 mg/kg
Protocol: Locomotor activity. The locomotion of mice was measured using an actimeter (Imetronic®, Pessac, France) through infrared detection. Eight individual removable polycarbonate cages (21 cm length, 7 cm wide and 12 cm high), in which each mouse was placed, were used in the actimeter. Locomotor activity was measured by recording the number of interruptions of beams of the red light over a period of 30 min through a recording system attached to the actimeter. Compound 20 was tested at 1, 3 and 10 mg/kg. Chlorpromazine (3 mg/kg) were used as depressive reference.

[5] = tested on: mice; experiment: Spontaneous alternation (Y maze), scopolamine-induced deficit; assay type: in vivo, NMRI mice; conditions: 1 mg/kg IP 30 min before test, scopolamine 0.5 mg/kg SC
Protocol: as §1, §2, §3

[6] = target: T1, (ee)AChE (Electrophorus electricus, UniProt O42275); experiment: AChE-dependent decarbamoylation (UPLC, LCMS); assay type: biochemical; conditions: 5 µM, PBS pH 7.4, 24 h
T1 construct: purchased Sigma Aldrich
Protocol: The in vitro decarbamoylation of 20 in the presence of AChE was established according to a new analytical method developed by Alix et al.. A large excess of Electrophorus electricus (eel)AChE was added to a solution of 20 in a phosphate-buffered saline (PBS) buffer (pH 7.4) at 25 °C. After 24 h of incubation, the solution was extracted by ethyl acetate, evaporated and solubilized in acetonitrile, and then analyzed by UPLC and LCMS. Owing to its high homology with the active-site sequence of the human AChE and its commercial availability, (ee)AChE is commonly used for in vitro assays and was chosen for this study.
The HPLC analyses were performed using an Agilent pump 1290, an autosampler 1290 and a diode array UV detector 1260 (Agilent technologies, Santa Clara, CA, USA). A reversed phase column C18 (Zorbax1 Eclipse Plus RRHD, 1.8 µm, 2.1 × 50 mm, Agilent) has been used for all components. A binary pump was used and the mobile phase was always composed of a mixture of (A) water (0.1% formic acid) and (B) acetonitrile (0.1% formic acid). Solutions of compound 19 and 20 were prepared in a PBS buffer (pH 7.4). […] The crude product was submerged in 50 µL of ACN, then analyzed by UPLC and LC-MS.

[7] = tested on: mice; experiment: CNS-activity and acute toxicity test; conditions: mice, IP
Protocol: as §1
(§4) CNS-activity and acute toxicity test. Behavioral and neurological changes induced by graded doses (1, 10, 100 mg/kg) of the tested derivatives were evaluated in mice, in groups of four, by a standardized observation technique at different times (30 min, 3 and 24 h) after intraperitoneal administration. […] The approximate DL50 of the compounds were also calculated through the quantification of mortality after 24 h. Amphetamine (2 mg/kg) and chlorpromazine (10 mg/kg) were used as the stimulant and depressive references, respectively.

[8] = CNS-activity and acute toxicity test; conditions: male, NMRI, mouse, in vivo, ip
Protocol: as §1, §4

T1 sequence (O42275 24-633): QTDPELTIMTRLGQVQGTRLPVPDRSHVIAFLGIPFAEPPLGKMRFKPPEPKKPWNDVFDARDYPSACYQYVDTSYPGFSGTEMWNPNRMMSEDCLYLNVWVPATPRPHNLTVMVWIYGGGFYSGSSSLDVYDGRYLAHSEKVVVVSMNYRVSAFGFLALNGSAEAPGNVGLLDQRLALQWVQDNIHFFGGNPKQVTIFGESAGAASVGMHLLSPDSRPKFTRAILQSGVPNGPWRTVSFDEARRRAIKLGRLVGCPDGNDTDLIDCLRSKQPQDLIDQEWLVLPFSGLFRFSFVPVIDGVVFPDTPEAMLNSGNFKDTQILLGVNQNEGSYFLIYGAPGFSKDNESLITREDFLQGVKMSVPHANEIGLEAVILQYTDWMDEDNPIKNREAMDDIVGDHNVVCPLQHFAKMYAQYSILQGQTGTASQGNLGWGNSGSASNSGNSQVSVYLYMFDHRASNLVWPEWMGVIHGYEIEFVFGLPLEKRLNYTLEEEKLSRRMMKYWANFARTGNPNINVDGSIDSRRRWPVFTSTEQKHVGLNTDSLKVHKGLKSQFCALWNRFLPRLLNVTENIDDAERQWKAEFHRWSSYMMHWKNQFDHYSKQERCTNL
AChE, sequence (P22303 32-617 isoform P22303-2 limits assumed): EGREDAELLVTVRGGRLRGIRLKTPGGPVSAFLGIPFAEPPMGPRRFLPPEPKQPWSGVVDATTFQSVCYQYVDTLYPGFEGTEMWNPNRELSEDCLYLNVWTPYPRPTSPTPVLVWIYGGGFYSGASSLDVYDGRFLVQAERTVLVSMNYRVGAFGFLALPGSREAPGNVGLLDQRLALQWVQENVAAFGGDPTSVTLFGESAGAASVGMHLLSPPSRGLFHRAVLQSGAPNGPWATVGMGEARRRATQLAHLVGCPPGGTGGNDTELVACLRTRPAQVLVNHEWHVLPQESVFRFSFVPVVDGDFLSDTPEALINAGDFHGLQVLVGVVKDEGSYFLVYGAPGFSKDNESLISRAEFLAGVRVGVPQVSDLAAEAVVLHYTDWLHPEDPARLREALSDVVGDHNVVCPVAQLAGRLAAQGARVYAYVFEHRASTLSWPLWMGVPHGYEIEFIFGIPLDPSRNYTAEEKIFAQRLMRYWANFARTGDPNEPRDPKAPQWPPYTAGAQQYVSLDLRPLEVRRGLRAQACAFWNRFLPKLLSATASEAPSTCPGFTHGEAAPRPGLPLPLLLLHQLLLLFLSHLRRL

Q: Which results are given for `CCN(C)C(=O)Oc1cccc(CN2CCC(CCC(=O)c3cc(Cl)c(N)cc3OC)CC2)c1.O=C(O)/C=C/C(=O)O` [Compound 20, [3-[[4-[3-(4-Amino-5-chloro-2-methoxyphenyl)-3-oxopropyl]-1-piperidyl]methyl]phenyl] N-ethyl-N-methyl-carbamate fumaric acid salt]?
A: percentage of spontaneous alternation [1]: significantly different from the value of the chance level; LogPe ([2]; PAMPA effective permeability coefficient, pH 7.4, 4 h): −4.39; Papp at 4 h, 100 μM ([2]; PAMPA, pH 7.4): 40.7 ×10⁻⁶ cm/s; brain penetration (BBB crossing) ([2]; classification from PAMPA): good brain penetration; mechanism of AChE inhibition [3]: mixed-type AChE inhibitor; also recorded: mixed-type inhibition; spontaneous locomotor activity versus NaCl [4]: none of the tested doses of compound 20 (1, 3 and 10 mg/kg) statically modified spontaneous locomotor activity; percentage of spontaneous alternation [5]: significantly different from the value of the chance level; decarbamoylation in the presence of (ee)AChE ([6]; 250 U/mL (ee)AChE): decarbamoylation of 20 and release of 4; chemical conversion in PBS buffer without (ee)AChE ([6]; negative control): not chemically converted into 4; Symptoms (Subtoxic Doses) ([7]; 100 mg/kg): 100, tremors, hypoactivity full recovery after 24h; Symptoms (Subtoxic Doses) ([7]; 1–10 mg/kg): 1–10, no symptoms; LD50 at 24 h [8]: > 100 mg/kg
